Consider four compounds from US20050090652A1, “Highly homogenous serum albumin as chiral selector” (priority 2002, published 2005).

In data set [1] the target is T1, recombinant human serum albumin (rHA) immobilised on silica (Homo sapiens, UniProt P02768). To be noted: pH 7.5.
The target of another data set is albumin (Homo sapiens, UniProt P02768). To be noted: binding to albumin; Peters et al.; Kragh-Hansen 1990; cited from earlier work.
The target in data set [2] is T1, recombinant human serum albumin (rHA) immobilised on silica. In words: Enantioselective HPLC analysis by the rHA-based column. To be noted: 1-propanol/phosphate buffer (pH 7.5) 15/85 (v/v), 0.6 ml/min flow rate.

Like-named read-outs stand apart in the source and are kept apart here.

Sequence of albumin (P02768 25-609, species assumed): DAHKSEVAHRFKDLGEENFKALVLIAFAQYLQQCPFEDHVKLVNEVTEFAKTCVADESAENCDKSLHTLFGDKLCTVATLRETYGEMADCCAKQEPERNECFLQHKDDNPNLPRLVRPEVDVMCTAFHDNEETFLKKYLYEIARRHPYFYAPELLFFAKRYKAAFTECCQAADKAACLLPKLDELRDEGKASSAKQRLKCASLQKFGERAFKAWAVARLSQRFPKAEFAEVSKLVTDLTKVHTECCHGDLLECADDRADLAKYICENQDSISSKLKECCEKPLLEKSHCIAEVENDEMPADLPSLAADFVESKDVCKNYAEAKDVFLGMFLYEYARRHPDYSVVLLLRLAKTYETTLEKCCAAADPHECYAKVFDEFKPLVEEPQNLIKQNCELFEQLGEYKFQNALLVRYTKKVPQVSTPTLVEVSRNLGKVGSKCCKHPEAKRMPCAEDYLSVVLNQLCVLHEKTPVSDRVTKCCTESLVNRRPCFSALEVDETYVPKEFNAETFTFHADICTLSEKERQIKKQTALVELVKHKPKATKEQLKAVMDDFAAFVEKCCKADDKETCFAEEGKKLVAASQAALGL
T1 sequence (P02768 25-609): as the sequence (P02768 25-609, species assumed) above

For `CC(C)CC(NC(=O)c1ccccc1)C(=O)O` (racemic) [N-benzoyl-DL-leucine], the “enantioselectivity (α)” value in data set [1] worked out at 2.8.

Turning to `O=C(O)CCC(=O)O[C@@H]1N=C(c2ccccc2)c2cc(Cl)ccc2NC1=O` [(S)-oxazepam-hemisuccinate], on albumin, the “affinity relative to the other enantiomer (antipode)” value is recorded as 35 fold.

Regarding `N[C@@H](Cc1c[nH]c2ccccc12)C(=O)O` [L-tryptophan], the “affinity relative to the other enantiomer (antipode)” value at albumin was 100 fold. rac-lorazepam hemisuccinate: the “enantioselectivity (α)” value in data set [2] was determined as 5.3.
